Measurements taken from PMC9250534, “Synthesis and direct assay of large macrocycle diversities by combinatorial late-stage modification at picomole scale” (Nature Communications, 2022).
Numbered stars: 1 amine (or outer) side, 2 acyl side, 3 side chain; on linkers, the order of the positions; unused ones are H or OH. Bridge positions count the residues as written; N and C are the ends. Square brackets hold non-standard residues; d marks the D form. Peptide text beside a SMILES is read from it. * marks the point of attachment. ξ: configuration not given here. ξPro(4-NHCO(5-Cl-2-thienyl)) = O=C(NC1CNC(C(=O)O)C1)c1ccc(Cl)s1; 2Thenoyl(5-Cl) = O=C(c1ccc(Cl)s1)*; Pyrazinecarbonyl = O=C(c1cnccn1)*; Cysteamide = C(CS[*:3])N[*:1]; Isovaleryl = CC(C)CC(=O)*; 2Furoyl = O=C(c1ccco1)*; Api = NC1(C(=O)O)CCNCC1; Dap = NC[CH](N)C(=O)O; Bz = O=C(c1ccccc1)*; Mpa = O=C(O)CCS

Biological target: T1, thrombin (Homo sapiens, UniProt P00734)
T1 construct: consists of two polypeptide chains of 36 (light chain) and 259 amino acid
Assay: Thrombin inhibition screen of crude macrocycle reactions (residual thrombin activity, fluorogenic substrate Z-Gly-Gly-Arg-AMC)
Type: biochemical
Conditions: 10 µM macrocycle concentration; for % thrombin activity, Original screen / % thrombin activity, Repeat screen: macrocycles containing acid 14, crude reaction; for % thrombin activity, Repeat screen: replicate reaction and screen; for percent residual thrombin activity: crude reactions, Library 1a-l, scaffold AA1-AA2-AA3 combined with 1-16 or '-'
Outline: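 Each crude macrocycle (10 μM) was preincubated 10 min at room temperature with thrombin (2 nM final) in Tris-Cl pH 7.4 containing NaCl, MgCl2, CaCl2, 0.1% BSA, 0.01% Triton X-100 and 0.6% DMSO. Z-Gly-Gly-Arg-AMC (50 μM final) was then added. Inhibition came from fluorescence slopes relative to DMSO-only controls.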

Row | % thrombin activity, Original screen | % thrombin activity, Repeat screen | percent residual thrombin activity | SMILES
1 | 87.5% | 88.0% |  | NC(=O)CC[C@@H]1NC(=O)CCSSCCNC(=O)C2(CCN(C(=O)c3ccc(Cl)s3)CC2)NC(=O)c2ccc(cc2)CNC1=O [X Q B3 D6]
2 | 96.6% | 90.6% |  | O=C1CCSSCCNC(=O)C2CC(NC(=O)c3ccc(Cl)s3)CN2C(=O)CCNC(=O)C(CO)N1 (stereo not shown) [X S B2 D5]
3 | 75.0% | 73.4% |  | CC(C)C1NC(=O)CCSSCCNC(=O)C(CNC(=O)c2ccc(Cl)s2)NC(=O)C2CCCN(C2)C1=O (stereo not shown) [X V B4 D3]
4 | 105.0% | 113.7% |  | O=C1CCSSCCNC(=O)C2(CCN(C(=O)c3ccc(Cl)s3)CC2)NC(=O)[C@@H]2CCCN2C(=O)[C@H](Cc2c[nH]c3ccccc23)N1 [X W B1 D6] ([Mpa]WP[Api](2Thenoyl(5-Cl))-Cysteamide; disulfide 1-C)
5 | 108.0% | 112.0% |  | O=C1CCSSCCNC(=O)[C@@H](CNC(=O)c2ccc(Cl)s2)NC(=O)[C@H]2CCCN(C2)C(=O)[C@H](Cc2c[nH]c3ccccc23)N1 [X W B4 D4]
6 | 103.8% | 106.8% |  | O=C1CCSSCCNC(=O)[C@@H](CNC(=O)c2ccc(Cl)s2)NC(=O)c2cccc(c2)CNC(=O)[C@H](Cc2c[nH]c3ccccc23)N1 [X W B5 D4]
7 | 65.4% | 56.1% |  | O=C1CCSSCCNC(=O)[C@H](CNC(=O)c2ccc(Cl)s2)NC(=O)C2(CC2)CNC(=O)[C@H](Cc2c[nH]c3ccccc23)N1 [X W B6 D3]
8 | 113.1% | 119.4% |  | O=C1CCSSCCNC(=O)C2CCCN2C(=O)C2CC(NC(=O)c3ccc(Cl)s3)CN2C(=O)C(Cc2c[nH]c3ccccc23)N1 (stereo not shown) [X W D5 B1] ([Mpa]W[ξPro(4-NHCO(5-Cl-2-thienyl))]P-Cysteamide; disulfide 1-C; configuration not given here)
9 | 97.9% | 97.0% |  | O=C1CCSSCCNC(=O)C2CCCN(C2)C(=O)C(CCCCNC(=O)c2ccc(Cl)s2)NC(=O)C(Cc2ccc(O)cc2)N1 (stereo not shown) [X Y D1 B4]
10 | 92.3% | 97.0% |  | O=C1CCSSCCNC(=O)C2CCCN2C(=O)C2CC(NC(=O)c3ccc(Cl)s3)CN2C(=O)C(Cc2ccc(O)cc2)N1 (stereo not shown) [X Y D5 B1] ([Mpa]Y[ξPro(4-NHCO(5-Cl-2-thienyl))]P-Cysteamide; disulfide 1-C; configuration not given here)
11 | 106.8% | 115.5% |  | CC1NC(=O)CCSSCCNC(=O)C(CCCCNC(=O)c2ccc(Cl)s2)NC(=O)C2CCCN2C1=O (stereo not shown) [X a B1 D1] ([Mpa]APK(2Thenoyl(5-Cl))-Cysteamide; disulfide 1-C; configuration not given here)
12 | 95.2% | 101.4% |  | C[C@H]1NC(=O)CCSSCCNC(=O)[C@H](CCCCNC(=O)c2ccc(Cl)s2)NC(=O)CCNC1=O [X a B2 D1]
13 | 107.0% | 109.1% |  | C[C@H]1NC(=O)CCSSCCNC(=O)[C@H]2CCCN(C2)C(=O)[C@H](CCCCNC(=O)c2ccc(Cl)s2)NC1=O [X a D1 B4]
14 | 102.5% | 104.4% |  | CC1NC(=O)CCSSCCNC(=O)c2cccc(c2)CNC(=O)C(CCCCNC(=O)c2ccc(Cl)s2)NC1=O (stereo not shown) [X a D1 B5]
15 | 97.7% | 98.7% |  | CC1NC(=O)CCSSCCNC(=O)C2CCCN(C2)C(=O)C(CNC(=O)c2ccc(Cl)s2)NC1=O (stereo not shown) [X a D3 B4]
16 | 108.4% | 109.8% |  | CC1NC(=O)CCSSCCNC(=O)C2CCCN2C(=O)C(CNC(=O)c2ccc(Cl)s2)NC1=O (stereo not shown) [X a D4 B1] ([Mpa]A[Dap](2Thenoyl(5-Cl))P-Cysteamide; disulfide 1-C; configuration not given here)
17 | 110.0% | 116.2% |  | C[C@H]1NC(=O)CCSSCCNC(=O)c2ccc(cc2)CNC(=O)[C@@H]2C[C@H](NC(=O)c3ccc(Cl)s3)CN2C1=O [X a D5 B3]
18 | 95.3% | 101.2% |  | O=C1CCSSCCNC(=O)C2CC(NC(=O)c3ccc(Cl)s3)CN2C(=O)CCNC(=O)C(Cc2ccccc2)N1 (stereo not shown) [X f B2 D5]
19 | 91.9% | 99.4% |  | O=C1CCSSCCNC(=O)C2CC(NC(=O)c3ccc(Cl)s3)CN2C(=O)C2CCCN(C2)C(=O)C(Cc2ccccc2)N1 (stereo not shown) [X f B4 D5]
20 | 100.5% | 105.5% |  | O=C1CCSSCCNC(=O)c2ccc(cc2)CNC(=O)[C@H](CCCCNC(=O)c2ccc(Cl)s2)NC(=O)[C@@H](Cc2ccccc2)N1 [X f D1 B3]
21 | 97.4% | 95.6% |  | O=C1CCNC(=O)C2(CCN(C(=O)c3ccc(Cl)s3)CC2)NC(=O)[C@@H](Cc2ccccc2)NC(=O)CCSSCCN1 [X f D6 B2]

Row | % thrombin activity, Original screen | % thrombin activity, Repeat screen | percent residual thrombin activity | SMILES
22 | 104.7% | 110.4% |  | O=C1CCSSCCNC(=O)C2(CCN(C(=O)c3ccc(Cl)s3)CC2)NC(=O)[C@@H]2CCCN2C(=O)[C@@H](CO)N1 [X s B1 D6] ([Mpa][dS]P[Api](2Thenoyl(5-Cl))-Cysteamide; disulfide 1-C)
23 | 97.6% | 99.9% |  | O=C1CCSSCCNC(=O)C2CCCN2C(=O)C2(CCN(C(=O)c3ccc(Cl)s3)CC2)NC(=O)C(CO)N1 (stereo not shown) [X s D6 B1] ([Mpa]S[Api](2Thenoyl(5-Cl))P-Cysteamide; disulfide 1-C; configuration not given here)
24 | 93.8% | 97.7% |  | O=C1CCSSCCNC(=O)[C@H]2CCCN(C2)C(=O)C2(CCN(C(=O)c3ccc(Cl)s3)CC2)NC(=O)[C@@H](CO)N1 [X s D6 B4]
25 | 103.4% | 104.1% |  | CC(C)[C@H]1NC(=O)CCSSCCNC(=O)c2cccc(c2)CNC(=O)[C@@H](CNC(=O)c2ccc(Cl)s2)NC1=O [X v D4 B5]
26 | 95.1% | 100.3% |  | O=C1CCSSCCNC(=O)c2cccc(c2)CNC(=O)[C@@H](CNC(=O)c2ccc(Cl)s2)NC(=O)[C@@H](Cc2c[nH]c3ccccc23)N1 [X w D4 B5]
27 | 89.3% | 97.3% |  | O=C1CCSSCCNC(=O)C2(CC2)CNC(=O)C2(CCN(C(=O)c3ccc(Cl)s3)CC2)NC(=O)[C@@H](Cc2c[nH]c3ccccc23)N1 [X w D6 B6]
28 | 109.6% | 115.2% |  | O=C1CCSSCCNC(=O)C2CCCN(C2)C(=O)C2CC(NC(=O)c3ccc(Cl)s3)CN2C(=O)C(Cc2ccc(O)cc2)N1 (stereo not shown) [X y D5 B4]
29 |  |  | 103.469% | O=C1CCSSCCNC(=O)[C@H]2CCCN(C2)C(=O)[C@H](CCCCNC(=O)c2c[nH]c(=O)cn2)NC(=O)[C@H](Cc2ccc(O)cc2)N1 [Y-D1-B4/9]
30 |  |  | 101.956% | COc1ccc(C(=O)NCCCC[C@@H]2NC(=O)[C@H](Cc3ccc(O)cc3)NC(=O)CCSSCCNC(=O)[C@H]3CCCN(C3)C2=O)cn1 [Y-D1-B4/10]
31 |  |  | 107.832% | O=C1CCSSCCNC(=O)[C@H]2CCCN(C2)C(=O)[C@H](CCCCNC(=O)c2c[nH]c(=O)[nH]c2=O)NC(=O)[C@H](Cc2ccc(O)cc2)N1 [Y-D1-B4/11]
32 |  |  | 97.8547% | O=C1CCSSCCNC(=O)[C@H]2CCCN(C2)C(=O)[C@H](CCCCNC(=O)c2ccc(Cl)s2)NC(=O)[C@H](Cc2ccc(O)cc2)N1 [Y-D1-B4/14]
33 |  |  | 104.272% | Cc1nnsc1C(=O)NCCCC[C@@H]1NC(=O)[C@H](Cc2ccc(O)cc2)NC(=O)CCSSCCNC(=O)[C@H]2CCCN(C2)C1=O [Y-D1-B4/15]
34 |  |  | 108.211% | NCCCC[C@@H]1NC(=O)[C@H](Cc2ccc(O)cc2)NC(=O)CCSSCCNC(=O)[C@H]2CCCN(C2)C1=O [Y-D1-B4/-]
35 |  |  | 107.016% | CC1NC(=O)CCSSCCNC(=O)C(CCCCNC(=O)c2ccccc2)NC(=O)C2CCCN2C1=O (stereo not shown) [a-B1-D1/1] ([Mpa]APK(Bz)-Cysteamide; disulfide 1-C; configuration not given here)
36 |  |  | 113.236% | C[C@H]1NC(=O)CCSSCCNC(=O)[C@H](CCCCNC(=O)c2cnccn2)NC(=O)[C@@H]2CCCN2C1=O [a-B1-D1/2] ([Mpa][dA]PK(Pyrazinecarbonyl)-Cysteamide; disulfide 1-C)
37 |  |  | 110.343% | CC(C)CC(=O)NCCCC[C@@H]1NC(=O)[C@@H]2CCCN2C(=O)[C@@H](C)NC(=O)CCSSCCNC1=O [a-B1-D1/8] ([Mpa][dA]PK(Isovaleryl)-Cysteamide; disulfide 1-C)
38 |  |  | 111.353% | C[C@H]1NC(=O)CCSSCCNC(=O)[C@H](CCCCNC(=O)c2ccco2)NC(=O)[C@@H]2CCCN2C1=O [a-B1-D1/16] ([Mpa][dA]PK(2Furoyl)-Cysteamide; disulfide 1-C)
39 |  |  | 107.599% | C[C@H]1NC(=O)CCSSCCNC(=O)[C@H](CCCCNC(=O)c2ccccc2)NC(=O)CCNC1=O [a-B2-D1/1]
40 |  |  | 102.459% | C[C@H]1NC(=O)CCSSCCNC(=O)[C@H](CCCCNC(=O)c2c[nH]c(=O)cn2)NC(=O)CCNC1=O [a-B2-D1/9]
41 |  |  | 107.663% | C[C@H]1NC(=O)CCSSCCNC(=O)[C@H](CCCCNC(=O)c2c[nH]c(=O)[nH]c2=O)NC(=O)CCNC1=O [a-B2-D1/11]
42 |  |  | 107.587% | C[C@H]1NC(=O)CCSSCCNC(=O)[C@H](CCCCNC(=O)c2ccco2)NC(=O)CCNC1=O [a-B2-D1/16]
